Measured values published in patent US7271278B2, “Application of chromium-amino acid complexes in the treatment of diabetes and other diseases” (The University of Wyoming, priority 2005, dated 2007).

Legend:
ob/ob(+/+) mice = assay: Plasma/serum lipids (total cholesterol, HDL) in obese mice; format: in vivo, mouse
Method: Specifically, mice were treated with Cr(pa)3 at 150 μg/kg/day for six weeks. Cholesterol levels were determined by using a kit from Equal Diagnostics (Exton, Pa.) following the manufacturer's protocol.
(§1) All animal treatment procedures described in this study were approved by the Animal Care and Use Committee at University of Wyoming (Laramie, Wyo.). Homozygous B6.Vlep/J male mice purchased from the Jackson Laboratory (Bar Harbor, Me.) at age 5 weeks were divided randomly into two weight-matched groups, marked as ob/ob(+/+) control and ob/ob(+/+) treatment (n=12). Number and age-matched normal C57 mice were used as lean control. All animals were maintained on conventional laboratory diet under well-controlled conditions of temperature (22±2° C.), humidity (55±5%) and 12 hours/12 hours light-dark cycle and had ad libitum access to water and standard rodent chow. Cr(D-Phe)3 was provided in the drinking water and, on the basis of water intake, was administered to provide an intake of about 150 μg/kg/day corresponding to about 10-15 μg elemental Cr/kg/day) for ob/ob(+/+) and lean treatment groups. […] The livers of these mice were frozen in liquid nitrogen immediately and stored at −80° C. until use. Blood was collected from the heart, and the serum was extracted by centrifuging the blood at 1000 g at 4° C. and stored at −80° C. Weights of body and other organs were measured with a standard laboratory scale.
Serum levels of total cholesterol, high-density-lipoprotein (HDL) and triglycerides were measured using commercial kits (from Equal Diagnostics, Exton, Pa.) and SpectraMax 340PC^384 Microplate Reader System (Molecular Device, Sunnyvale, Calif.).

insulin receptor beta = assay: Insulin-stimulated IRβ tyrosine phosphorylation, Western blot of 3T3-adipocyte lysates; format: cell-based, mouse
Method: (§2) The 3T3-L1-pre-adipocytes were obtained from the American Type Culture Collection and were propagated at 37° C. in DMEM with 10% newborn calf serum plus 50 U/ml penicillin and 50 μg/ml streptomycin in an incubator under a humidified atmosphere of 5% CO2/95% air. Induction of differentiation was done one day post-confluence. Cells were maintained in differentiation medium of the following composition: DMEM, 10% FBS, […] dexamethasone, 0.5 mM 1-isobutyl-3-methylxanthine (IBMX) and ITS for three days. At day 3, the dexamethasone and IBMX were removed with ITS remaining on the cells for an additional two days. Differentiation was allowed to continue in DMEM supplemented with 10% FBS, ITS and the adipocytes were used between day 9 and 14 post-induction. Prior to the cellular assays, cells were serum starved by overnight incubation in DMEM (containing 0.2% serum).
Cells were lysed in RIPA buffer (150 mM NaCl, 0.25% sodium desoxycholate, 1% NP-40, 1 mM EDTA and 50 mM Tris, pH 7.2) containing 2 mM sodium vanadate, 1 μM PMSF, 1 μM sodium fluoride, 1 μg/ml aprotinin, 1 μg/ml leupeptin, and 1 μM pepstatin and sonicated to reduce the sample viscosity. The lysate was centrifuged at 15000×g for 15 minutes at 4° C. and the protein concentration in the supernatant was determined by the bicinchoninic acid method. Equivalent amounts of proteins were boiled in Laemmli sample buffer. Proteins 10-20 μg were separated on 7.5-10% polyacrylamide gel, and electrophoretically transferred to a nitrocellulose membrane. The membranes were incubated for 1 hour at room temperature in blocking buffer (5% w/v non-fat dry milk in tris buffered saline containing 0.1% Tween 20). Membranes were incubated in appropriate phospho-specific primary antibody for insulin receptor beta or Akt at 1:2500 dilutions in the blocking buffer followed by incubation with horseradish peroxidase-coupled secondary antibodies with appropriate specificity. Immunoreactive bands were visualized using enhanced chemiluminescence reagents (Cell Signaling Technology, Inc, Beverly, Mass.). […]

Akt [1] = assay: Insulin-stimulated Akt (thr308) phosphorylation, Western blot of 3T3-adipocyte lysates; format: cell-based, mouse
Method: as §2
Cells were lysed in RIPA buffer (150 mM NaCl, 0.25% sodium desoxycholate, 1% NP-40, 1 mM EDTA and 50 mM Tris, pH 7.2) containing 2 mM sodium vanadate, 1 μM PMSF, 1 μM sodium fluoride, 1 μg/ml aprotinin, 1 μg/ml leupeptin, and 1 μM pepstatin and sonicated to reduce the sample viscosity. The lysate was centrifuged at 15000×g for 15 minutes at 4° C. and the protein concentration in the supernatant was determined by the bicinchoninic acid method. Equivalent amounts of proteins were boiled in Laemmli sample buffer. Proteins 10-20 μg were separated on 7.5-10% polyacrylamide gel, and electrophoretically transferred to a nitrocellulose membrane. The membranes were incubated for 1 hour at room temperature in blocking buffer (5% w/v non-fat dry milk in tris buffered saline containing 0.1% Tween 20). Membranes were incubated in appropriate phospho-specific primary antibody for insulin receptor beta or Akt at 1:2500 dilutions in the blocking buffer followed by incubation with horseradish peroxidase-coupled secondary antibodies with appropriate specificity. Immunoreactive bands were visualized using enhanced chemiluminescence reagents (Cell Signaling Technology, Inc, Beverly, Mass.). Blots were then stripped and re-probed with antibodies directed against insulin receptor β and Akt.

Akt [2] = assay: Hepatic Akt and insulin receptor phosphorylation, Western blot of liver homogenates; format: in vivo, mouse; settings: obese mice
Source text: as §1
Liver tissues lysates were subjected to Western blot analysis as described hereinabove using phospho specific antibodies against Akt. Blots were then stripped and re-probed with antibodies directed against antibodies directed at the total protein.

For `N[C@H](Cc1ccccc1)C(=O)O.[Cr+3]` [Cr(pa)3, chromium (III) D-phenylalanine], the “serum HDL-cholesterol levels” value (ob/ob(+/+) mice; 150 μg/kg/day 6 weeks) was “did not alter”, the “total serum cholesterol levels” value (ob/ob(+/+) mice; 150 μg/kg/day 6 weeks (Example 2)) was “significant lowering” and the plasma cholesterol levels (ob/ob(+/+) mice; 150 μg/kg/day six weeks (Example 1)) was “significantly attenuated”. For the same molecule, the “protein levels of insulin receptor” value (insulin receptor beta; 3T3-adipocytes) was “does not increase”, the “IRβ phosphorylation induced by submaximal insulin” value (insulin receptor beta; insulin 1 nM) was “not altered” and the “insulin-stimulated IRβ tyrosine phosphorylation” value (insulin receptor beta; pretreatment for various time or at different concentrations, insulin 10 nM 10 minutes) was “not altered”. For the same molecule, the “phosphorylation levels of Akt” value (Akt [1]; Cr(pa)3 alone, absence of insulin) was “did not alter”, the “stimulation of insulin-stimulated Akt phosphorylation compared to chromium picolinate” value (Akt [1]; equimolar concentrations) was “greater stimulation” and the “in vitro Akt phosphorylation among various chromium complexes” value (Akt [1]; insulin 10 nM, vs Cr(Pic)3, Cr(AcAc)3, Cr(Sal)3, CrCl3) was “greatest amount”. The “insulin-stimulated Akt (thr308) phosphorylation” value (Akt [1]; pretreatment, insulin 10 nM, concentration- and time-dependent) was “further increase”, the “levels of phospho-Akt in liver homogenate” value (Akt [2]; oral 150 μg/kg/day 6 weeks, basal) was “failed to significantly enhance” and the “levels of total Akt protein in liver homogenate” value (Akt [2]; oral treatment) was “Neither did the treatment alter”. For the same molecule, the “phosphorylation of insulin-receptors in liver” value (Akt [2]; same blots reprobed for phosphorylated insulin receptor beta) was “no changes”.
